Values of other authors, collected in patent US20140031310A1, “PHARMACEUTICAL COMPOSITIONS AND METHODS FOR MAKING AND USING THEM” (priority 2011, published 2014).

What was measured:
[1] = in vivo
[2] = in vivo; remark: listed apart in the source

pharmacokinetic half-life [1]	Compound	leads to HFSR / skin toxicity [2]
20 to 24 h	CNC(=O)c1cc(Oc2ccc(NC(=O)Nc3ccc(Cl)c(C(F)(F)F)c3)cc2)ccn1 [sorafenib]	–
–	bevacizumab: anti-VEGF mAb	Neither anti-VEGF mAbs (bevacizumab) nor PDGF-R inhibitors (e.g., imatinib) lead to HFSR
